{"source": "patent US20210244720A1", "about": "“Therapeutic Tyrosine Kinase Inhibitors for Relapsing Multiple Sclerosis (RMS)” (Genzyme Corporation, priority 2020, published 2021)", "system": "participants with relapsing multiple sclerosis (RMS)", "assay": "Phase 2b study in RMS: safety and tolerability (adverse events, laboratory tests, ECG, vital signs)", "details": "for proportion of participants with TEAEs: treatment period", "key": {"[1]": {"details": "60 mg, 12 weeks treatment, n = 32"}, "[2]": {"details": "60 mg, BTK inhibitor treatment period, safety population, N = 32"}, "[3]": {"details": "60 mg, BTK inhibitor treatment period, safety population, N = 33"}, "[4]": {"details": "12-week treatment period, 15 mg"}, "[5]": {"details": "12-week treatment period, 30 mg"}, "[6]": {"details": "12-week treatment period, 60 mg"}, "[7]": {"details": "All Dose Groups, 12 weeks treatment, N = 130"}, "[8]": {"details": "All Dose Groups, Weeks 1 to 12, N = 130"}, "[9]": {"details": "All, BTK inhibitor treatment period, safety population, N = 130"}}, "data": [{"smiles": "C=CC(=O)N1CCC[C@@H](n2c(=O)n(-c3ccc(Oc4ccccc4)cc3)c3c(N)nccc32)C1", "note": "[the BTK inhibitor, (R)-1-(1-acryloylpiperidin-3-yl)-4-amino-3-(4-phenoxyphenyl)-1H-imidazo[4,5-c]pyridin-2(3H)-one]", "values": [{"measurement": "Nasopharyngitis, patients %", "setting": "[1]", "result": "(9%)"}, {"measurement": "Nasopharyngitis, patients n", "setting": "[1]", "result": 3}, {"measurement": "Oropharyngeal pain, patients %", "setting": "[1]", "result": "(3%)"}, {"measurement": "Oropharyngeal pain, patients n", "setting": "[1]", "result": 1}, {"measurement": "Peripheral edema, patients %", "setting": "[1]", "result": "(6%)"}, {"measurement": "Peripheral edema, patients n", "setting": "[1]", "result": 2}, {"measurement": "Respiratory tract infection, patients %", "setting": "[1]", "result": "(3%)"}, {"measurement": "Respiratory tract infection, patients n", "setting": "[1]", "result": 1}, {"measurement": "Upper respiratory tract infection, patients %", "setting": "[1]", "result": "(3%)"}, {"measurement": "Upper respiratory tract infection, patients n", "setting": "[1]", "result": 1}, {"measurement": "AESI, Alanice aminotransferase increased, n (%)", "setting": "[2]", "result": "1 (3.1)"}, {"measurement": "AESI, Investigations, n (%)", "setting": "[2]", "result": "1 (3.1)"}, {"measurement": "Any AESI, n (%)", "setting": "[2]", "result": "1 (3.1)"}, {"measurement": "Participants with any TEAE, %", "setting": "[3]", "result": "(54.5) %"}, {"measurement": "Participants with any treatment-related TEAE, %", "setting": "[3]", "result": "(6.1) %"}, {"measurement": "treatment-emergent SAE", "setting": "60 mg, Cohort 1, MS relapse", "result": "One"}, {"measurement": "AESI, Alanice aminotransferase increased, n (%)", "setting": "60 mg, Weeks 1 to 4, N = 16", "result": 0}, {"measurement": "AESI, Investigations, n (%)", "setting": "60 mg, Weeks 1 to 4, N = 16", "result": 0}, {"measurement": "Any AESI, n (%)", "setting": "60 mg, Weeks 1 to 4, N = 16", "result": 0}, {"measurement": "Participants with any TEAE, %", "setting": "60 mg, Weeks 1 to 4, N = 33", "result": "(42.4) %"}, {"measurement": "Participants with any treatment-related TEAE, %", "setting": "60 mg, Weeks 1 to 4, N = 33", "result": "(9.1) %"}, {"measurement": "Any AE, %", "setting": "60 mg, Weeks 1 to 4, n = 16", "result": "(31.3%)"}, {"measurement": "Any treatment-related AE, %", "setting": "60 mg, Weeks 1 to 4, n = 16", "result": "(6.3%)"}, {"measurement": "Any AE, %", "setting": "60 mg, Weeks 1 to 12, n = 32", "result": "(50.0) %"}, {"measurement": "Any treatment-related AE, %", "setting": "60 mg, Weeks 1 to 12, n = 32", "result": "(21.9) %"}, {"measurement": "Serious AE, %", "setting": "60 mg, Weeks 1 to 12, n = 32", "result": "(3.1) %"}, {"measurement": "correlation between dose administered and number of TEAEs", "setting": "5-60 mg", "result": "no direct correlation"}, {"measurement": "TEAE alanine aminotransferase increased", "setting": "12-week treatment period, 5 mg", "result": 1}, {"measurement": "TEAE alopecia", "setting": "12-week treatment period, 5 mg", "result": 1}, {"measurement": "TEAE back pain", "setting": "12-week treatment period, 5 mg", "result": 1}, {"measurement": "TEAE gastroenteritis", "setting": "12-week treatment period, 5 mg", "result": 1}, {"measurement": "TEAE headache", "setting": "12-week treatment period, 5 mg", "result": 1}, {"measurement": "TEAE nasopharyngitis", "setting": "12-week treatment period, 5 mg", "result": 1}, {"measurement": "TEAE oedema peripheral", "setting": "12-week treatment period, 5 mg", "result": 2}, {"measurement": "TEAE oropharyngeal pain", "setting": "12-week treatment period, 5 mg", "result": 1}, {"measurement": "TEAE upper respiratory tract infection", "setting": "12-week treatment period, 5 mg", "result": 2}, {"measurement": "TEAE alopecia", "setting": "[4]", "result": 1}, {"measurement": "TEAE back pain", "setting": "[4]", "result": 1}, {"measurement": "TEAE headache", "setting": "[4]", "result": 3}, {"measurement": "TEAE respiratory tract infection", "setting": "[4]", "result": 1}, {"measurement": "TEAE upper respiratory tract infection", "setting": "[4]", "result": 2}, {"measurement": "TEAE alanine aminotransferase increased", "setting": "[5]", "result": 1}, {"measurement": "TEAE back pain", "setting": "[5]", "result": 2}, {"measurement": "TEAE headache", "setting": "[5]", "result": 1}, {"measurement": "TEAE muscle spasticity", "setting": "[5]", "result": 1}, {"measurement": "TEAE nasopharyngitis", "setting": "[5]", "result": 1}, {"measurement": "TEAE oropharyngeal pain", "setting": "[5]", "result": 1}, {"measurement": "TEAE respiratory tract infection", "setting": "[5]", "result": 1}, {"measurement": "TEAE upper respiratory tract infection", "setting": "[5]", "result": 1}, {"measurement": "TEAE accidental overdose", "setting": "[6]", "result": 3}, {"measurement": "TEAE alanine aminotransferase increased", "setting": "[6]", "result": 1}, {"measurement": "TEAE alopecia", "setting": "[6]", "result": 1}, {"measurement": "TEAE gastroenteritis", "setting": "[6]", "result": 2}, {"measurement": "TEAE headache", "setting": "[6]", "result": 4}, {"measurement": "TEAE muscle spasticity", "setting": "[6]", "result": 2}, {"measurement": "TEAE nasopharyngitis", "setting": "[6]", "result": 3}, {"measurement": "TEAE oedema peripheral", "setting": "[6]", "result": 2}, {"measurement": "TEAE oropharyngeal pain", "setting": "[6]", "result": 1}, {"measurement": "TEAE respiratory tract infection", "setting": "[6]", "result": 1}, {"measurement": "TEAE upper respiratory tract infection", "setting": "[6]", "result": 1}, {"measurement": "tolerability", "setting": "12 weeks of treatment", "result": "well-tolerated"}, {"measurement": "Accidental overdose, patients n (%)", "setting": "[7]", "result": "3 (2%)"}, {"measurement": "Alanine aminotransferase increased, patients n (%)", "setting": "[7]", "result": "3 (2%)"}, {"measurement": "Alopecia, patients n (%)", "setting": "[7]", "result": "3 (2%)"}, {"measurement": "Back pain, patients n (%)", "setting": "[7]", "result": "4 (3%)"}, {"measurement": "Gastroenteritis, patients n (%)", "setting": "[7]", "result": "3 (2%)"}, {"measurement": "Headache, patients n (%)", "setting": "[7]", "result": "9 (7%)"}, {"measurement": "Muscle spasticity, patients n (%)", "setting": "[7]", "result": "3 (2%)"}, {"measurement": "Nasopharyngitis, patients n (%)", "setting": "[7]", "result": "5 (4%)"}, {"measurement": "Oropharyngeal pain, patients n (%)", "setting": "[7]", "result": "3 (2%)"}, {"measurement": "Peripheral edema, patients n (%)", "setting": "[7]", "result": "4 (3%)"}, {"measurement": "Respiratory tract infection, patients n (%)", "setting": "[7]", "result": "3 (2%)"}, {"measurement": "Upper respiratory tract infection, patients n (%)", "setting": "[7]", "result": "6 (5%)"}, {"measurement": "Any AE, %", "setting": "[8]", "result": "(53.8) %"}, {"measurement": "Any treatment-related AE, %", "setting": "[8]", "result": "(13.1) %"}, {"measurement": "Serious AE, %", "setting": "[8]", "result": "(0.8) %"}, {"measurement": "AESI, Alanice aminotransferase increased, n (%)", "setting": "[9]", "result": "2 (1.5)"}, {"measurement": "AESI, Investigations, n (%)", "setting": "[9]", "result": "2 (1.5)"}, {"measurement": "Any AESI, n (%)", "setting": "[9]", "result": "2 (1.5)"}, {"measurement": "Participants with any TEAE, %", "setting": "[9]", "result": "(53.1) %"}, {"measurement": "Participants with any severe TEAE, %", "setting": "[9]", "result": "(0.8) %"}, {"measurement": "Participants with any treatment emergent SAE, %", "setting": "[9]", "result": "(0.8) %"}, {"measurement": "Participants with any treatment-related TEAE, %", "setting": "[9]", "result": "(11.5) %"}, {"measurement": "Participants with treatment emergent SAE(s), Any class, n(%)", "setting": "[9]", "result": "1 (0.8)"}, {"measurement": "Participants with treatment emergent SAE(s), Multiple sclerosis relapse, n(%)", "setting": "[9]", "result": "1 (0.8)"}, {"measurement": "Participants with treatment emergent SAE(s), NERVOUS SYSTEM DISORDERS, n(%)", "setting": "[9]", "result": "1 (0.8)"}, {"measurement": "Participants with any TEAE, %", "setting": "All, Weeks 1 to 4, N = 130", "result": "(38.5) %"}, {"measurement": "Participants with any treatment-related TEAE, %", "setting": "All, Weeks 1 to 4, N = 130", "result": "(9.2) %"}, {"measurement": "TEAE headache", "setting": "Weeks 1 to 4, 5 mg", "result": 3, "unit": "cases"}, {"measurement": "TEAE nausea", "setting": "Weeks 1 to 4, 5 mg", "result": 2, "unit": "cases"}, {"measurement": "proportion of participants who experienced TEAEs", "setting": "Weeks 1 to 4, 5 mg", "result": 31.3, "unit": "%"}, {"measurement": "TEAE headache", "setting": "Weeks 1 to 4, 15 mg", "result": 2, "unit": "cases"}, {"measurement": "proportion of participants who experienced TEAEs", "setting": "Weeks 1 to 4, 15 mg", "result": 18.8, "unit": "%"}, {"measurement": "TEAE nausea", "setting": "Weeks 1 to 4, 30 mg", "result": 1, "unit": "cases"}, {"measurement": "proportion of participants who experienced TEAEs", "setting": "Weeks 1 to 4, 30 mg", "result": 12.5, "unit": "%"}, {"measurement": "TEAE headache", "setting": "Weeks 1 to 4, 60 mg", "result": 1, "unit": "cases"}, {"measurement": "proportion of participants who experienced TEAEs", "setting": "Weeks 1 to 4, 60 mg", "result": 31.3, "unit": "%"}, {"measurement": "TEAE upper respiratory tract infection", "setting": "Weeks 1 to 4, each treatment group", "result": 1, "unit": "case"}, {"measurement": "TEAEs leading to permanent treatment discontinuation", "setting": "all dose groups", "result": "no TEAEs leading to permanent treatment discontinuation"}, {"measurement": "intensity of TEAEs", "setting": "all dose groups", "result": "mild or moderate intensity except for one severe TEAE"}, {"measurement": "PCSAs related to vital signs, labs and ECGs", "setting": "multiple treatment groups", "result": "no dose relationship"}, {"measurement": "proportion of participants with TEAEs", "setting": "5 mg", "result": 57.6, "unit": "%"}, {"measurement": "proportion of participants with TEAEs", "setting": "15 mg", "result": 53.1, "unit": "%"}, {"measurement": "proportion of participants with TEAEs", "setting": "30 mg", "result": 54.5, "unit": "%"}, {"measurement": "proportion of participants with TEAEs", "setting": "60 mg", "result": 50.0, "unit": "%"}, {"measurement": "AESIs (alanine aminotransferase increased >3×ULN)", "setting": "whole study", "result": "two"}, {"measurement": "deaths", "setting": "whole study", "result": "No deaths"}]}]}
